{
  "source": "patent US20240108602A1",
  "about": "“TREATMENT OF MENTAL DISORDERS” (GH Research Ireland Limited, priority 2022, published 2024)",
  "assay": "5-MeO-DMT, 5-MIAA and bufotenine in urine, serum and breastmilk of a lactating PPD patient, LC-MS/MS",
  "description": "The second patients was lactating, and, per the clinical trial protocol, breastmilk samples were collected pre-dosing and at multiple timepoints after administration of the last dose. […] Similar analyses were carried out on patient serum and urine samples.",
  "key": {"[1]": {"conditions": "1.0 hrs after last dose (6 mg then 12 mg 5-MeO-DMT)"}},
  "data": [
    {"smiles": "COc1ccc2[nH]cc(CCN(C)C)c2c1", "note": "[5-MeO-DMT]", "values": [
      {"measurement": "Breastmilk concentration", "setting": "[1]", "value": 2167.0, "unit": "pg/mL"},
      {"measurement": "Serum concentration", "setting": "[1]", "value": 0.1329, "unit": "ng/mL"},
      {"measurement": "Breastmilk concentration", "setting": "2.5 hrs after last dose", "value": 560.6, "unit": "pg/mL"},
      {"measurement": "Serum concentration", "setting": "2.5 hrs after last dose", "value": "BLQ (BLQ: Below limit of quantification. The lower limit of quantification is 25 pg/ml for both 5-MeO-DMT and 5-MIAA in both serum and breastmilk; it is 25 pg/ml in urine for 5-MeO-DMT and 250 pg/ml for 5-MIAA in urine.)"},
      {"measurement": "Urine concentration", "setting": "2.5 hrs after last dose", "value": 566.7, "unit": "pg/mL"},
      {"measurement": "Breastmilk concentration", "setting": "8.5 hrs after last dose", "value": 42.1, "unit": "pg/mL"},
      {"measurement": "Urine concentration", "setting": "8.5 hrs after last dose", "value": "BLQ (BLQ: Below limit of quantification. The lower limit of quantification is 25 pg/ml for both 5-MeO-DMT and 5-MIAA in both serum and breastmilk; it is 25 pg/ml in urine for 5-MeO-DMT and 250 pg/ml for 5-MIAA in urine.)"},
      {"measurement": "Breastmilk concentration", "setting": "24.0 hrs after last dose", "value": "did not detect any 5-MeO-DMT and BLG"},
      {"measurement": "Serum concentration", "setting": "24.0 hrs after last dose", "value": "BLQ (BLQ: Below limit of quantification. The lower limit of quantification is 25 pg/ml for both 5-MeO-DMT and 5-MIAA in both serum and breastmilk; it is 25 pg/ml in urine for 5-MeO-DMT and 250 pg/ml for 5-MIAA in urine.)"},
      {"measurement": "Urine concentration", "setting": "24.0 hrs after last dose", "value": "BLQ (BLQ: Below limit of quantification. The lower limit of quantification is 25 pg/ml for both 5-MeO-DMT and 5-MIAA in both serum and breastmilk; it is 25 pg/ml in urine for 5-MeO-DMT and 250 pg/ml for 5-MIAA in urine.)"},
      {"measurement": "Breastmilk concentration", "setting": "120.0 hrs after last dose", "value": "BLQ (BLQ: Below limit of quantification. The lower limit of quantification is 25 pg/ml for both 5-MeO-DMT and 5-MIAA in both serum and breastmilk; it is 25 pg/ml in urine for 5-MeO-DMT and 250 pg/ml for 5-MIAA in urine.)"},
      {"measurement": "Serum concentration", "setting": "120.0 hrs after last dose", "value": "BLQ (BLQ: Below limit of quantification. The lower limit of quantification is 25 pg/ml for both 5-MeO-DMT and 5-MIAA in both serum and breastmilk; it is 25 pg/ml in urine for 5-MeO-DMT and 250 pg/ml for 5-MIAA in urine.)"},
      {"measurement": "Urine concentration", "setting": "120.0 hrs after last dose", "value": "BLQ (BLQ: Below limit of quantification. The lower limit of quantification is 25 pg/ml for both 5-MeO-DMT and 5-MIAA in both serum and breastmilk; it is 25 pg/ml in urine for 5-MeO-DMT and 250 pg/ml for 5-MIAA in urine.)"},
      {"measurement": "Breastmilk concentration", "setting": "−24.0 hrs (pre-dosing)", "value": "BLQ (BLQ: Below limit of quantification. The lower limit of quantification is 25 pg/ml for both 5-MeO-DMT and 5-MIAA in both serum and breastmilk; it is 25 pg/ml in urine for 5-MeO-DMT and 250 pg/ml for 5-MIAA in urine.)"},
      {"measurement": "Serum concentration", "setting": "−24.0 hrs (pre-dosing)", "value": "BLQ (BLQ: Below limit of quantification. The lower limit of quantification is 25 pg/ml for both 5-MeO-DMT and 5-MIAA in both serum and breastmilk; it is 25 pg/ml in urine for 5-MeO-DMT and 250 pg/ml for 5-MIAA in urine.)"},
      {"measurement": "Urine concentration", "setting": "−24.0 hrs (pre-dosing)", "value": "BLQ (BLQ: Below limit of quantification. The lower limit of quantification is 25 pg/ml for both 5-MeO-DMT and 5-MIAA in both serum and breastmilk; it is 25 pg/ml in urine for 5-MeO-DMT and 250 pg/ml for 5-MIAA in urine.)"}
    ]}
  ]
}
